Consider 2 molecules from patent publication US20220031684A1, “PROPHYLACTIC EFFICACY OF SEROTONIN 4 RECEPTOR AGONISTS AGAINST STRESS” (THE TRUSTEES OF COLUMBIA UNIVERSITY IN THE CITY OF NEW YORK, priority 2019, published 2022).

Counter-ions that a name gives are not always drawn.

Format in all cases: in vivo
Experiment [1] concerns BALB/cJRj mice. The experiment in a line: Elevated plus maze (EPM), acute anxiolytic-like effect. As to conditions: single dose 1.5 mg/kg; 24 hours after the injection.
The subject of experiment [2] is BALB/cJRj mice. The experiment in a line: Open field paradigm (OF), acute anxiolytic-like effect. As to conditions: for percent time spent in Center (OF) vs vehicle: male BALB/cJRj, RS67333 1.5, diazepam 1.5, fluoxetine 18 mg/kg; for time spent in the center of the OF: single dose 1.5 mg/kg, 48 hours after the injection. An excerpt:
Motor activity was quantified in four 39×39 cm perpex plastic open field boxes (Vivo-tech/Ugo Basile, Salon de Provence, France). The apparatus was illuminated from the ground with special designed 40×40 cm Infra-red backlights (monochromatic wavelength 850 nm high homogeneity, Vivo-tech, Salon de Provence, France). Activity chambers were monitored by four black and white cameras with varifocal optics and polarizing filters (Vivo-tech, Salon de Provence, France). For optogenetic experiments, optical bandpass filters were specifically selected to improve tracking detection. The whole set-up was controlled using ANYMAZE version 6 video tracking software (Stoelting Co/Vivo-tech, Salon de Provence, France). Dependent measures were time in the center over a 10 min for systemic administration or 6 min test period for optogenetic experiments, total ambulatory distance and ambulatory distance traveled in the center divided by total distance.

The subject of experiment [3] is BALB/cJRj mice. The experiment is described as follows: EPM with optogenetic inhibition of mPFC terminals in the DRN (CaMKII-ArchT). As to conditions: for time, percent time spent in the open arms (EPM), light OFF / inhibition of the drug-induced increase in open-arm time (EPM) during 3-min green light illumination: intra-mPFC RS67333 0.5 pg/side or diazepam 1.5 pg/side; for inhibition of the drug-induced increase in open-arm time (EPM) during 3-min green light illumination: light ON. How it is done:
(§1) The EPM is a widely used behavioral assay for rodents and it has been validated to assess the anti-anxiety effects of pharmacological agents (A-S11). This test was performed as described by (A-S1). The maze is a plus-cross-shaped apparatus, with two open arms and two arms closed by walls linked by a central platform 50 cm above the floor. Mice were individually put in the center of the maze facing an open arm and were allowed to explore the maze during 5 min for the behavioral consequences of an acute systemic administration or mPFC infusion and during 6 min for the optogenetic experiments. The time spent in and the numbers of entries into the open arms were used as an anxiety index. All parameters were measured using a videotracker (EPM3C, Bioseb, Vitrolles, France).
To target opsin expression selectively to cortical glutamatergic terminals in the DRN, AAV5-CaMKIIα-ChR2-enhanced yellow fluorescent protein (eYFP), AAV5-CaMKII-ArchT-green fluorescent protein (GFP) or AAV5-CaMKII-eYFP, obtained from Karl Deisseroth and Ed Boyden (UNC Vector Core, NC, USA) were bilaterally injected into the mPFC (in mm from bregma, A=+2.10, L=±0.50, V=−2.60). Mice injected with AAV5-CamKII-eYFP were used as control.
BALB/cJRj mice were surgically implanted with fiber optics targeted to the DRN (in mm from bregma, A=−4.50, L=+1.20, V=−4.0, angle 15°). A […] core, 0.37 NA fiber optic (ThorLabs, ˜10-12 and 15-16 mW for ChR2 and Arch-T, respectively, at the tip of optic) was used for optical stimulation via a patch cable connected to either a 473 or 532 nm laser diode (OEM laser systems, USA) as previously described (A-S15). For behavioral experiments, AAV5-CaMKIIα-ChR2-eYFP mice and their controls received a 10 Hz stimulation, 20 ms pulses, over a 3-minute period whereas a green light was delivered continuously to AAV5-CaMKII-ArchT-GFP throughout the 3 min testing period. Similar doses of RS67333 (locally in the mPFC at […] or at 1.5 mg/kg, i.p.) and diazepam (locally in the mPFC at […] or at 1.5 mg/kg, i.p.) were infused in the mPFC or administered i.p. The stimulation or the inhibition of mPFC projections in the DRN occurred simultaneously to the behavioral paradigms.

For experiment [4], the system named is BALB/cJRj mice. The experiment in a line: Elevated plus maze (EPM), acute anxiolytic-like effect. How it is done:
RS67333 (1.5 mg/kg, i.p.), diazepam (1.5 mg/kg, i.p.), fluoxetine (18 mg/kg, i.p.) were injected 45 min before testing in the Elevated Plus Maze (EPM), the Novelty Suppressed Feeding (NSF) or the Open Field (OF) in three independent cohorts of male BALB/cJRj mice.
To ensure the selectivity of the anxiolytic-like effects of RS67333, in a new cohort of male BALB/cJRj mice, GR125487 (1.0 mg/kg, i.p.) dissolved in 0.9% NaCl solution, was injected 15 minutes before RS67333 administration (1.5 mg/kg, i.p.). EPM or NSF occurred 45 min after RS67333 administration (A-S1). Behavioral consequences of the co-administration of GR125487+RS67333 were compared to RS67333 alone, diazepam (1.5 mg/kg, i.p.) fluoxetine (18 mg/kg, i.p.) and vehicle groups (0.9% saline solution, i.p.).
For mPFC drug infusion, two bilateral cannulae (75 μm-diameter silica capillary tubing inserted in 27G stainless steel catheter) were implanted in the mPFC [stereotaxic coordinates in mm from bregma: A=+2.10, L=±0.50, V=−2.60, A, anterior; L, lateral; and V, ventral, according to (A-S10)] under anesthesia (chloral hydrate, 400 mg/kg, i.p.). […] Diazepam (1.5 mg/kg) was used as a positive control.
In a new cohort of male BALB/cJRj mice, p-CPA was administered twice daily (at 0900 and 1700 h) for 3 consecutive days. RS67333 ([…]) and diazepam ([…]) were then intra-mPFC administered 24 h after the final p-CPA administration and behavioral test (EPM) occurred 45 minutes after local infusion.
as §1

Setting [5] is: CaMKII-ArchT-mPFC injected mice, systemic RS67333 1.5 mg/kg or diazepam 1.5 mg/kg.
[6] abbreviates: CamKII-ArchT mice, intra-mPFC infusion.

Consider `CCCCN1CCC(CCC(=O)c2cc(Cl)c(N)cc2OC)CC1.Cl` [RS-67,333, 1-(4-amino-5-chloro-2-methoxyphenyl)-3-[1(n-butyl)-4-piperidinyl]-1-propanone HCl], for which, in the experiment on BALB/cJRj mice [1], the “anxiolytic effects in the EPM” value is given as “have not identified the anxiolytic effects expected”. Besides, the “percent time spent in Center (OF) vs vehicle” value with BALB/cJRj mice [2] (i.p. 45 min before testing) is reported as “increase”. Further, the “time spent in the center of the OF” value in the experiment with BALB/cJRj mice [2] is “increased the time spent in the center”. In addition, the “decrease in time spent in the open arms (EPM), light ON vs light OFF” value in the experiment on BALB/cJRj mice [3] (setting [5]) turned out to be 24%. The “time, percent time spent in the open arms (EPM), light OFF” value in the experiment with BALB/cJRj mice [3] (CamKII-ArchT mice) is “increased significantly time”. Besides, the “inhibition of the drug-induced increase in open-arm time (EPM) during 3-min green light illumination” value in the experiment with BALB/cJRj mice [3] (CamKII-ArchT mice) was found to be 70±8%. The “time and percent time spent in the open arms (EPM) vs vehicle” value (“time and percent time spent” below) with BALB/cJRj mice [4] (intra-mPFC infusion 45 min before testing, RS67333 0.5 pg/side (1 pg), diazepam 1.5 pg/side, HCl) is “significantly increased time and percent time spent in the open arms”; in the experiment on BALB/cJRj mice [4] (male BALB/cJRj, i.p. 45 min before testing, RS67333 1.5 mg/kg, diazepam 1.5 mg/kg) it was “increased”.
As for `CN1C(=O)CN=C(c2ccccc2)c2cc(Cl)ccc21` [diazepam, Diazepam hydrochloride], the “anxiolytic effects in the EPM” value in the experiment on BALB/cJRj mice [1] is given as “have not been able to observe any long-term activity”. Moreover, the “ratio of ambulatory distance in the center divided by total distance (OF) vs vehicle” value in the experiment with BALB/cJRj mice [2] (i.p. 45 min before testing, RS67333 1.5, diazepam 1.5 mg/kg) is on record as “significantly increased”. For the same molecule, the “percent time spent in Center (OF) vs vehicle” value in the experiment with BALB/cJRj mice [2] (i.p. 45 min before testing) is recorded as “increase”. Also, in the experiment on BALB/cJRj mice [2], the “time spent in the center of the OF” value is on record as “have not been able to observe any long-term activity”. For the same molecule, in the experiment with BALB/cJRj mice [3] (setting [5]), the “decrease in time spent in the open arms (EPM), light ON vs light OFF” value is 17%; the “time, percent time in open arms and ratio open arms/total distance (EPM), light OFF vs vehicle” value is given as “increased time, percent time spent in open arms”. Further, in the experiment with BALB/cJRj mice [3] (CamKII-ArchT mice), the “time, percent time spent in the open arms (EPM), light OFF” value is reported as “increased significantly time” and the “inhibition of the drug-induced increase in open-arm time (EPM) during 3-min green light illumination” value is recorded as 85±5%. Besides, in the experiment with BALB/cJRj mice [3] (setting [6]), the “drug-induced increase of ratio open arms/total distance (EPM), light ON” value is on record as “blocked” and the “ratio of ambulatory distance in open arms divided by total distance (EPM), light OFF vs controls” value is reported as “increased the ratio”. Further, in the experiment on BALB/cJRj mice [4] (i.p. 45 min before testing, RS67333 1.5 mg/kg, diazepam 1.5 mg/kg), the “ratio of ambulatory distance in the open arms divided by total distance (EPM) vs vehicle” value is on record as “significantly increased”. In the experiment on BALB/cJRj mice [4] (intra-mPFC infusion 45 min before testing, RS67333 0.5 pg/side (1 pg), diazepam 1.5 pg/side), the “time and percent time spent” value was “increased time, percent time spent in the open arms”. For the same molecule, the “time and percent time spent” value in the experiment with BALB/cJRj mice [4] (male BALB/cJRj, i.p. 45 min before testing, RS67333 1.5 mg/kg, diazepam 1.5 mg/kg, hydrochloride) was “significantly increased time and percent time spent in the open arms”. Besides, the “drug-induced increase in time, percent time in open arms and ratio open arms/total distance (EPM) in 5-HT-depleted p-CPA mice” value in the experiment on BALB/cJRj mice [4] (p-CPA pre-treatment 3 days, intra-mPFC RS67333 0.5 pg/side or diazepam 1.5 pg/side) is given as “abolished”.
